In paper PMC12655235 (Pharmaceuticals, 2025):

Legend:
U87 cells = experiment: MTT assay for cell viability; type: cell-based; settings: Homo sapiens, U-87 MG, 24 h incubation
Procedure: U87 cells were maintained in DMEM supplemented with 10% fetal bovine serum and antibiotics (100 U/mL penicillin, 100 µg/mL streptomycin) at 37 °C in a humidified 5% CO2 atmosphere under sterile conditions. To ensure accurate experimental comparisons, all experiments included two control groups: a negative control of cells incubated in drug-free medium, and a solvent control with cells exposed to drug-free medium containing 0.5% DMSO, to evaluate any potential solvent toxicity. Cell viability was determined using the MTT assay after a 24 h incubation of U87 cells with various drug formulations. These included free atorvastatin, free curcumin, a solution combining atorvastatin and curcumin, At-Cu LNCs and FA-At-Cu LNCs. Stock solutions (2 mg/mL) for individual free drugs and their combination were prepared in phosphate-buffered saline (PBS) containing 1% sterile DMSO to ensure complete solubilization, from which serial dilutions (25–800 µg/mL) were then made. At-Cu LNCs and FA-At-Cu LNCs were sonicated for 5 min prior to preparing their serial dilutions (0.025–250 µg/mL). […] The resultant formazan crystals were dissolved in acidified isopropanol, and absorbance was measured at 560 nm using PHERAstar microplate reader (BMG Labtech, Ortenberg, Germany). Cell viability was expressed as a percentage of untreated control cells, and half-maximal inhibitory concentrations (IC50) were calculated. […]

[1] = cited from earlier work
[2] = Solubility study of folic acid in acetone; type: physicochemical; settings: sedimentation at 40 mg
Procedure: The optimized formulation, composed of 39.60% w/w solutol, 10.50% w/w oils and 16.60 mg total drugs, was selected using Design Expert® software based on achieving the smallest PS, then prepared and experimentally evaluated to verify agreement between predicted and actual values. […] Accordingly, LNCs functionalized with 10, 20, and 30 mg FA were prepared and assessed for PS, PDI, and ZP. […] This oily phase was then mixed with the aqueous phase (composed of 100 mg sodium chloride in 2.5 mL distilled water). Then the mixture was subjected to three thermal cycling intervals (85 °C and 55 °C) under magnetic stirring. Finally ice-cold water was added till 10 g formulation was obtained. Stirring then continued for 10 min at room temperature.

[3] = In vivo pharmacokinetics and biodistribution of 131I-radiolabeled drugs in glioma-bearing mice; parameters: species or system BALB/c mice; settings: [131I]-curcumin
Procedure: Labeling conditions were systematically optimized by varying pH, drug concentration, oxidant amount, and reaction time. […] Purification was achieved by RP-HPLC to remove free iodine and impurities. […] The radiochemical yield was determined by calculating the percentage of the total radioactivity attributed to the radio-iodinated compound, using the following equation [105, 106]: Radiochemical yield %=Activity of labeled compond/Total activity ×100
All animal procedures were conducted in accordance with arrive guidelines and were approved by the Research Ethics Committee at the Faculty of Pharmacy, The British university in Egypt, with approval number (EX-2508). Male BALB/c mice (6 weeks old, weighing 20–25 g) were utilized for the study. Prior to the start of experiments, animals were acclimatized for two weeks under controlled environmental conditions (25 ± 2 °C, 12 h light/dark cycle) in group-housed (3–5 mice/cage) polypropylene cages at the animal house of the Egyptian Atomic Energy Authority. […] For induction of brain tumor in mice, they were anesthetized through intraperitoneal injection of 0.1 mL of ketamine-xylazine solution containing ketamine HCl (25 mg/mL) and xylazine (2.5 mg/mL) as described in current protocols. To implant cells intracranially, a calibrated 26-gauge 701N Hamilton micro-syringe (Micromeasure B.V., The Hague, The Netherlands) was used to inject 5 µL of 2.5 × 10^6 cells of CT-2A glioma cell suspension intracranially through the post glenoid foramen as previously reported. The right auricle was slowly pushed forward during the procedure, exposing the site of insertion. The syringe was held at an appropriate angle, and the cell suspension was slowly injected over 30 s. On completion, the needle was removed gently while applying light finger pressure to prevent bleeding. Additional pressure was applied for an additional 30 s after the removal of the needle to achieve hemostasis.
One hundred and eighty BALB/c mice were randomly assigned into six experimental groups, each further divided into six subgroups (n = 5 per subgroup), corresponding to specific time points post-injection: 0.5, 1, 2, 4, 8, and 24 h. […] Formulations were prepared under aseptic conditions using sterile water for injection and a laminar flow hood.
At each time point, five mice per group were anesthetized using isoflurane, and blood samples were collected by cardiac puncture into pre-heparinized polypropylene tubes. Mice were then euthanized by CO2 inhalation, and organs including the brain, liver, and kidneys and others were excised, rinsed with physiological saline, gently blotted, and weighed. Tissue and plasma samples were analyzed for radioactivity using a well-type γ-scintillation counter (SR-7,Nuclear Enterprises Ltd., San Carlos, CA, USA) and data were expressed as the percentage of the injected dose per gram of tissue (%ID/g).
The mean radioactivity values (represented as % injected dose per gram of tissue, %ID/g) acquired at various time points were examined using PKSolver, a Microsoft Excel add-in, in order to evaluate the pharmacokinetic behavior and tissue distribution of the radiolabeled formulations. […] AUC values based on time-radioactivity data were calculated using the trapezoidal rule.
Two quantitative parameters were computed using the AUC values obtained from the biodistribution study in order to assess the targeting performance and tissue selectivity of the formulations. The following equation was used to calculate tumor targeting efficiency (%): Tumor targeting efficiency %= AUC0−24 glioma/AUC0−24 blood x100

[4] = i.v. 2 mg/kg, glioma-bearing mice

Row | SMILES | IC50 (U87 cells) [µg/mL] | Renal excretion of atorvastatin and its active metabolites [1] | Complete solubility in acetone [2] | AUC (0–24 h) Intestine, curcumin ([3]; i.v.) [%ID*h/g tissue] | AUC (0–24 h) Spleen, curcumin ([3]; i.v.) [%ID*h/g tissue] | AUC (0–24 h) kidneys, curcumin ([3]; i.v.) [%ID*h/g tissue] | AUC (0–24 h) liver, curcumin ([3]; i.v.) [%ID*h/g tissue] | AUC (0–24 h) Blood, curcumin [3, 4] [%ID*h/g tissue] | AUC (0–24 h) Brain, curcumin [3, 4] [%ID*h/g tissue] | AUC (0–24 h) Glioma, curcumin [3, 4] [%ID*h/g tissue]
1 | CC(C)c1c(C(=O)Nc2ccccc2)c(-c2ccccc2)c(-c2ccc(F)cc2)n1CC[C@@H](O)C[C@@H](O)CC(=O)O [atorvastatin, Atorvastatin calcium] | 680 ± 17.2 | less than 2 % of the dose | – | – | – | – | – | – | – | –
2 | Nc1nc2ncc(CNc3ccc(C(=O)N[C@@H](CCC(=O)O)C(=O)O)cc3)nc2c(=O)[nH]1 [FA, Folic acid] | – | – | up to 30 mg | – | – | – | – | – | – | –
3 | COc1cc(/C=C/C(=O)CC(=O)/C=C/c2ccc(O)c(OC)c2)ccc1O [curcumin, Curcumin] | 724 ± 78.3 | – | – | 526.50 ± 111.63 | 7.07 ± 1.70 | 57.87 ± 12.47 | 711.50 ± 114.83 | 72.27 ± 15.44 | 1.47 ± 0.44 | 3.72 ± 1.34
